Test systems include SNB-19 CNS; U251 CNS; HT29 colon; OVCAR-8 ovarian; MOLT-4 leukemia; TK-10 renal; 786-0 renal; KM12 colon; HCC-2998 colon; SF-539 CNS; LOX IMVI melanoma; HOP-62 NSCLC; NCI-H226 lung; SF-295 CNS; EKVX NSCLC; COLO 205 colon; MCF7 breast; RXF 393 renal; UACC-62 melanoma; HS 578T breast.
Assay in all cases: NCI tumour cell line growth inhibition, 48 h

From PubChem BioAssay (NCI) come the findings set out here.

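Results reflect a 48-hour exposure of cells in 96-well plates to compound at five concentrations. Definition used: TGI = concentration required for complete inhibition of growth.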

`N#CCc1nc2ccccc2c(=O)[nH]1`: the TGI in the assay with SNB-19 CNS, in the assay on U251 CNS, with HT29 colon, in the assay with OVCAR-8 ovarian, with MOLT-4 leukemia and in the assay on TK-10 renal was > 100 µM throughout. Moreover, the TGI with 786-0 renal, with KM12 colon, in the assay on HCC-2998 colon, in the assay on SF-539 CNS, in the assay with LOX IMVI melanoma and in the assay on HOP-62 NSCLC was > 100 µM throughout. For the same molecule, the TGI in the assay with NCI-H226 lung, in the assay with SF-295 CNS, in the assay on EKVX NSCLC, in the assay with COLO 205 colon and in the assay on MCF7 breast was > 100 µM in each case.

Consider `O=C(/C=C(\O)c1ccccc1)C(=O)NNc1ccc([N+](=O)[O-])cc1[N+](=O)[O-]`, for which the TGI was found to be 74.6 µM in the assay on SNB-19 CNS; 28.1 µM in the assay on U251 CNS; 35 µM in the assay with RXF 393 renal; 53.6 µM in the assay on OVCAR-8 ovarian; 31.1 µM in the assay on UACC-62 melanoma; 38.3 µM in the assay with MOLT-4 leukemia. Also, the TGI was 49 µM with TK-10 renal; 25.9 µM with 786-0 renal; 33.7 µM in the assay with KM12 colon; 30 µM in the assay with HCC-2998 colon; 33.5 µM in the assay with SF-539 CNS; 64.3 µM in the assay with LOX IMVI melanoma. Further, the TGI in the assay with HOP-62 NSCLC was 37.8 µM; with NCI-H226 lung it was 50.4 µM; with SF-295 CNS it was 29.8 µM; with EKVX NSCLC, 56.3 µM; with COLO 205 colon, 32.3 µM; with MCF7 breast, > 100 µM.

`COc1cc(OC)c2c(c1)C(=O)C(CC(C)O)=CC2=O` (stereo not given): the TGI in the assay with SNB-19 CNS was 31.6 µM; in the assay on U251 CNS, 31.8 µM; in the assay with HT29 colon it was 36.8 µM; in the assay with RXF 393 renal, 25.3 µM; in the assay with OVCAR-8 ovarian, 29.5 µM; in the assay with UACC-62 melanoma, 25.8 µM. In addition, the TGI in the assay on MOLT-4 leukemia stood at 41.8 µM; with TK-10 renal it was 34.1 µM; in the assay on 786-0 renal it was 29.9 µM; in the assay with KM12 colon, 35 µM; in the assay on HCC-2998 colon, 43.7 µM; with SF-539 CNS, 32.5 µM. The TGI in the assay on LOX IMVI melanoma was 19 µM; in the assay with HOP-62 NSCLC, 33.6 µM; with NCI-H226 lung, 35.4 µM; in the assay on SF-295 CNS, 27.4 µM; in the assay on EKVX NSCLC, 26.2 µM; with COLO 205 colon, 32.6 µM.

Regarding `CCN(CC)CCCNc1nc(=O)[nH]c(C)c1C(=O)Nc1cccc2cc3ccccc3cc12`, the TGI with SNB-19 CNS, in the assay with U251 CNS, in the assay with HT29 colon, in the assay with RXF 393 renal, in the assay on OVCAR-8 ovarian and in the assay with UACC-62 melanoma was > 100 µM throughout. The TGI in the assay with MOLT-4 leukemia, in the assay with TK-10 renal, in the assay with 786-0 renal, in the assay with KM12 colon, with HCC-2998 colon and with SF-539 CNS was > 100 µM throughout. The TGI with LOX IMVI melanoma, with HOP-62 NSCLC, with NCI-H226 lung, in the assay on SF-295 CNS, in the assay on EKVX NSCLC and with COLO 205 colon was > 100 µM throughout. The TGI in the assay on MCF7 breast is > 100 µM.

`COc1ccc(/C=C2\NC(=S)N(CN3CCCCC3)C2=O)cc1`: the TGI is > 100 µM in the assay with SNB-19 CNS; > 100 µM in the assay on U251 CNS; 41 µM in the assay with HT29 colon; 50 µM in the assay with OVCAR-8 ovarian; > 100 µM in the assay with UACC-62 melanoma; > 100 µM with MOLT-4 leukemia. In addition, the TGI was > 100 µM with TK-10 renal; > 100 µM with 786-0 renal; > 100 µM in the assay on KM12 colon; 42 µM with HS 578T breast; 93.3 µM in the assay with LOX IMVI melanoma; > 100 µM with HOP-62 NSCLC. The TGI in the assay on NCI-H226 lung was > 100 µM; in the assay on SF-295 CNS, > 100 µM; in the assay with EKVX NSCLC it was > 100 µM; in the assay on COLO 205 colon, 85.6 µM; in the assay on MCF7 breast, 61.1 µM.

Consider `CCc1ccccc1NC(=O)C(=O)CC(=O)c1sc(Nc2ccccc2)nc1C`, for which the TGI in the assay on SNB-19 CNS, in the assay with U251 CNS, in the assay on HT29 colon, in the assay on RXF 393 renal, in the assay on OVCAR-8 ovarian and in the assay on UACC-62 melanoma was > 100 µM each time. Moreover, the TGI with MOLT-4 leukemia, in the assay on TK-10 renal, in the assay on 786-0 renal, in the assay on KM12 colon, in the assay with HCC-2998 colon and in the assay on SF-539 CNS was > 100 µM each time. The TGI in the assay on LOX IMVI melanoma, in the assay on HOP-62 NSCLC, in the assay with NCI-H226 lung, in the assay with SF-295 CNS, in the assay with EKVX NSCLC and with COLO 205 colon was > 100 µM in each case.

As for `O=[N+]([O-])c1ccc(-c2nnc(C34CC5CC(CC(C5)C3)C4)o2)cc1`, the TGI in the assay with SNB-19 CNS, with U251 CNS, in the assay on HT29 colon, in the assay with RXF 393 renal, in the assay with UACC-62 melanoma and in the assay with MOLT-4 leukemia was > 100 µM throughout. Moreover, the TGI with TK-10 renal, with 786-0 renal, in the assay on KM12 colon, with HCC-2998 colon, in the assay on SF-539 CNS and with HS 578T breast was > 100 µM each time. In addition, the TGI in the assay on LOX IMVI melanoma, in the assay on HOP-62 NSCLC, in the assay on NCI-H226 lung, with SF-295 CNS, in the assay on EKVX NSCLC and with COLO 205 colon was > 100 µM each time.

Consider `C=CCOc1ccc(/C(N=Nc2ccc(Cl)cc2)=N/NC(=O)c2ccccc2)cc1OC`, for which the TGI with SNB-19 CNS, in the assay with U251 CNS, in the assay with HT29 colon, in the assay with OVCAR-8 ovarian, with UACC-62 melanoma and in the assay on MOLT-4 leukemia was > 100 µM throughout. In addition, the TGI in the assay with TK-10 renal, in the assay with 786-0 renal, in the assay with KM12 colon, with HCC-2998 colon, in the assay with HS 578T breast and in the assay with LOX IMVI melanoma was > 100 µM throughout. In addition, the TGI in the assay with HOP-62 NSCLC, in the assay with NCI-H226 lung, in the assay on SF-295 CNS, with EKVX NSCLC, in the assay with COLO 205 colon and in the assay with MCF7 breast was > 100 µM each time.

Turning to `COc1cccc(-c2c(C#N)c(N)nc3c2CCS(=O)(=O)c2ccc(C)cc2-3)c1`, the TGI with SNB-19 CNS, with U251 CNS, in the assay with HT29 colon, in the assay with OVCAR-8 ovarian, with UACC-62 melanoma and in the assay with TK-10 renal was > 100 µM throughout. In addition, the TGI with 786-0 renal, in the assay with KM12 colon, in the assay with HCC-2998 colon, with HS 578T breast, in the assay with LOX IMVI melanoma and with HOP-62 NSCLC was > 100 µM throughout. Besides, the TGI in the assay on NCI-H226 lung and with COLO 205 colon was > 100 µM throughout.

Take `O=C(c1cccc2ccccc12)C1(Br)S(=O)(=O)OCCOS1(=O)=O`: the TGI with SNB-19 CNS, in the assay on U251 CNS, with HT29 colon, in the assay on OVCAR-8 ovarian, with MOLT-4 leukemia and in the assay on TK-10 renal was > 100 µM throughout. Besides, the TGI in the assay on 786-0 renal, in the assay with KM12 colon, in the assay with HCC-2998 colon, in the assay with LOX IMVI melanoma, in the assay on HOP-62 NSCLC and in the assay with SF-295 CNS was > 100 µM in each case. The TGI in the assay on EKVX NSCLC, in the assay with COLO 205 colon and in the assay on MCF7 breast was > 100 µM throughout.

With `NC(=O)N/N=C1\CCCCc2ccccc21`, the TGI in the assay on SNB-19 CNS, with U251 CNS, in the assay on HT29 colon, in the assay on RXF 393 renal, with OVCAR-8 ovarian and in the assay on MOLT-4 leukemia was > 10 µM in each case. For the same molecule, the TGI in the assay with TK-10 renal, in the assay on 786-0 renal, in the assay on KM12 colon, in the assay on HCC-2998 colon, in the assay on HOP-62 NSCLC and in the assay on NCI-H226 lung was > 10 µM throughout. Also, the TGI in the assay with EKVX NSCLC, with COLO 205 colon and in the assay with MCF7 breast was > 10 µM each time.

Consider `CC1(C)C(=NNC(=O)C[N+](C)(C)C)C(C)(C)C1=NNC(=O)C[N+](C)(C)C`, for which the TGI in the assay with SNB-19 CNS, with U251 CNS, in the assay on HT29 colon, in the assay with RXF 393 renal, in the assay with OVCAR-8 ovarian and in the assay with UACC-62 melanoma was > 100 µM throughout. Further, the TGI in the assay on MOLT-4 leukemia, in the assay on TK-10 renal, with 786-0 renal, in the assay with KM12 colon, in the assay on HCC-2998 colon and in the assay on SF-539 CNS was > 100 µM each time. For the same molecule, the TGI in the assay with LOX IMVI melanoma, in the assay on HOP-62 NSCLC, with NCI-H226 lung, in the assay with SF-295 CNS, in the assay on EKVX NSCLC and in the assay with COLO 205 colon was > 100 µM in each case.
